Columns and labels:
[1] = biological target: T1, IKZF1 (Ikaros) (Homo sapiens, UniProt Q13422); assay: IKZF1 reporter degradation assay (HEK 293T IKZF1-mNeonGreen reporter cell line); format: cell-based; conditions: HEK 293T IKZF1-mNeonGreen reporter, 24 hours incubation
T1 construct: mScarlet (behind P2A) (C, cleaved yes); expressed in transfected cells
In short: (§1)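 Cells were seeded overnight and then dosed with DMSO dilutions of compound. After 24 h, the plates were imaged live in the FITC and TRITC channels. The fraction of reporter-positive cells was plotted and fitted to a four-parameter logistic curve to give DC50.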

[2] = biological target: T2, human E3 ligase component cereblon (CRBN) (Homo sapiens, UniProt Q96SW2); assay: Cereblon (CRBN) target engagement, NanoBRET TE Intracellular E3 Ligase Assay in transfected HEK-293T cells; conditions: read-out: CRBN Binding EC50
T2 construct: host or cells: HEK293T
In short: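 Tracer displacement was read as the 610/450 nm BRET signal after 2 h at 37° C with an 11-point dilution series, typically 10 μM to 100 pM. Live HEK-293T cells expressed NanoLuc fused N-terminal to human CRBN together with DDB1. IC50 was fitted with a four-parameter logistic model.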

[3] = biological target: T3, IKZF2 (Helios) (Homo sapiens, UniProt Q9UKS7); assay: IKZF2 reporter degradation assay (HEK 293T IKZF2-mNeonGreen reporter cell line); format: cell-based; conditions: HEK 293T IKZF2-mNeonGreen reporter, 24 hours incubation
T3 construct: Leu-Asp junction (codons ctcgac before the linker); mScarlet (behind P2A) (C, cleaved yes); expressed in transfected cells
In short: as §1

[4] = biological target: T4, IKZF2 (Helios) (Homo sapiens, UniProt Q96SW2+Q9UKS7); assay: as above; format: cell-based; conditions: HEK-293T, 24 h, @ 1 μM, HEK 293T IKZF2-mNeonGreen reporter, 24 hours incubation
T4 construct: Leu-Asp junction (codons ctcgac before the linker); mScarlet (behind P2A) (C, cleaved yes); expressed in transfected cells
In short: as §1

[5] = biological target: T5, IKZF3 (Aiolos) (Homo sapiens, UniProt Q9UKT9); assay: IKZF3 reporter degradation assay (HEK 293T IKZF3-mNeonGreen reporter cell line); format: cell-based; conditions: HEK 293T IKZF3-mNeonGreen reporter, 24 hours incubation
T5 construct: Leu-Asp junction (codons ctcgac before the linker); mScarlet (behind P2A) (C, cleaved yes); expressed in transfected cells
In short: as §1

T5 sequence (Q96SW2 whole entry partner): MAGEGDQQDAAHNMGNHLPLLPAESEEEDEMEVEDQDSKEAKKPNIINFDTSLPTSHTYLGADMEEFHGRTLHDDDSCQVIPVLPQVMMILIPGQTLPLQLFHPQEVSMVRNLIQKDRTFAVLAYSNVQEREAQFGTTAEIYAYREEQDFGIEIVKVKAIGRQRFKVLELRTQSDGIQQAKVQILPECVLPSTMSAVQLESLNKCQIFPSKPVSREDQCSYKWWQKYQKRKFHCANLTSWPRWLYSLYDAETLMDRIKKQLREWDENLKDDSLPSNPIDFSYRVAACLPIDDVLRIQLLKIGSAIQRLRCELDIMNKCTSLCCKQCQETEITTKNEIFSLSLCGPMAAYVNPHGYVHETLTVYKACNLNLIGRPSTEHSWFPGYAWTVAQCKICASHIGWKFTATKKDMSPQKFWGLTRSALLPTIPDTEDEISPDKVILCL
T5 sequence (Q16531 whole entry partner): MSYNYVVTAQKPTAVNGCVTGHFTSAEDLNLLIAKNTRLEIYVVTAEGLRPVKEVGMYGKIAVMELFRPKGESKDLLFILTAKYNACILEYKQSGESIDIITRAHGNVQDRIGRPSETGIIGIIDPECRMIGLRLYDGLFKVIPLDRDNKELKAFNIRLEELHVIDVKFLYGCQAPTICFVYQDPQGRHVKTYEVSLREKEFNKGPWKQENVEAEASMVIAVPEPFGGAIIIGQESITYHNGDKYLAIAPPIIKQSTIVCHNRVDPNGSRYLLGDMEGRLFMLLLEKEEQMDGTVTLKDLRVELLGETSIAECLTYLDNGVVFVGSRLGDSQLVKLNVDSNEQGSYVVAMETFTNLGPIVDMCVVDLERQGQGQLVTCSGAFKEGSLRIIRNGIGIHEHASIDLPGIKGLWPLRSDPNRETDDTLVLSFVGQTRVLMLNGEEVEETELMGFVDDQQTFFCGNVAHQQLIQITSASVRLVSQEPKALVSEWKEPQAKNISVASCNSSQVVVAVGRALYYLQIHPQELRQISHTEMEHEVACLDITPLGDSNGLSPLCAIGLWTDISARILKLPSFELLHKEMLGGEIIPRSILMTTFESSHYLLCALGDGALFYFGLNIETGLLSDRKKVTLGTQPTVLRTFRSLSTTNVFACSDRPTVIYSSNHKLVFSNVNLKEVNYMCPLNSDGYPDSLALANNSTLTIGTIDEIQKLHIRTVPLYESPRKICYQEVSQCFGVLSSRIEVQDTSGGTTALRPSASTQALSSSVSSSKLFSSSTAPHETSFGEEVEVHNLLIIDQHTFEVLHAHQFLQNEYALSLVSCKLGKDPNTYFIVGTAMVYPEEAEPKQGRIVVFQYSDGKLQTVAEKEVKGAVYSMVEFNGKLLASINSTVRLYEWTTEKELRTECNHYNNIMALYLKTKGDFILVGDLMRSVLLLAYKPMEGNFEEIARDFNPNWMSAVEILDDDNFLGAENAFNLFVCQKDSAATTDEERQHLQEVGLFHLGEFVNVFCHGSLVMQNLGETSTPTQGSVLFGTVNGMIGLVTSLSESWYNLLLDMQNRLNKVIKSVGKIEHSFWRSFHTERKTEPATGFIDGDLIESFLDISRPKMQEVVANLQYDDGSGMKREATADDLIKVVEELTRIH
T5 sequence (Q9UKT9 whole entry): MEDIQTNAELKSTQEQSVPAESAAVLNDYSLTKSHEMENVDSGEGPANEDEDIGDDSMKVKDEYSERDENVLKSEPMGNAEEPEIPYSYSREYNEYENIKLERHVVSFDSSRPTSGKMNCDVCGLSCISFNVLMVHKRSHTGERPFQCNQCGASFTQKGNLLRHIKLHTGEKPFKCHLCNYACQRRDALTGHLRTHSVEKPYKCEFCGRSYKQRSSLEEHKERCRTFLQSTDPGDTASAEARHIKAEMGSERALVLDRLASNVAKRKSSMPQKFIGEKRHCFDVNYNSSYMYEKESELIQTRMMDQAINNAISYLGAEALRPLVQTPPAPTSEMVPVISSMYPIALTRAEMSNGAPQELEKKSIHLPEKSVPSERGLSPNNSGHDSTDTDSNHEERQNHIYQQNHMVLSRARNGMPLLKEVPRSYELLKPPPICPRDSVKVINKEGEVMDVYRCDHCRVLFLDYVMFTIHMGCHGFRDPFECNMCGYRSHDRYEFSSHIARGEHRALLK
T2 sequence (Q96SW2 whole entry): as the sequence (Q96SW2 whole entry partner) above
T2 sequence (Q16531 whole entry partner): as the sequence (Q16531 whole entry partner) above
T1 sequence (Q96SW2 whole entry partner): as the sequence (Q96SW2 whole entry partner) above
T1 sequence (Q16531 whole entry partner): as the sequence (Q16531 whole entry partner) above
T1 sequence (Q13422 whole entry): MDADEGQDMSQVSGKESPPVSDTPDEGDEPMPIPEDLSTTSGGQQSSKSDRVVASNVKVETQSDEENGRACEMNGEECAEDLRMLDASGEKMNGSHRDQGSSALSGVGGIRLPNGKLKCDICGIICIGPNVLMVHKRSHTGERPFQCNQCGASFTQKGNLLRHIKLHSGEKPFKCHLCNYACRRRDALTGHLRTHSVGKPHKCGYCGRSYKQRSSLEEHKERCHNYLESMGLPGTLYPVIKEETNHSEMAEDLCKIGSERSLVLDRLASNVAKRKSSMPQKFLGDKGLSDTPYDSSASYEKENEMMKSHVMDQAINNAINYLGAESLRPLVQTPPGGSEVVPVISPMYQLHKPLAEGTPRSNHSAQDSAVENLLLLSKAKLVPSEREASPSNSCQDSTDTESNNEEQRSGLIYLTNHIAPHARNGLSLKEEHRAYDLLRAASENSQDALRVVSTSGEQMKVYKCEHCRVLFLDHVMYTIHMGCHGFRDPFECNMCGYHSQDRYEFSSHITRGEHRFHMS
T3 sequence (Q9UKS7 whole entry): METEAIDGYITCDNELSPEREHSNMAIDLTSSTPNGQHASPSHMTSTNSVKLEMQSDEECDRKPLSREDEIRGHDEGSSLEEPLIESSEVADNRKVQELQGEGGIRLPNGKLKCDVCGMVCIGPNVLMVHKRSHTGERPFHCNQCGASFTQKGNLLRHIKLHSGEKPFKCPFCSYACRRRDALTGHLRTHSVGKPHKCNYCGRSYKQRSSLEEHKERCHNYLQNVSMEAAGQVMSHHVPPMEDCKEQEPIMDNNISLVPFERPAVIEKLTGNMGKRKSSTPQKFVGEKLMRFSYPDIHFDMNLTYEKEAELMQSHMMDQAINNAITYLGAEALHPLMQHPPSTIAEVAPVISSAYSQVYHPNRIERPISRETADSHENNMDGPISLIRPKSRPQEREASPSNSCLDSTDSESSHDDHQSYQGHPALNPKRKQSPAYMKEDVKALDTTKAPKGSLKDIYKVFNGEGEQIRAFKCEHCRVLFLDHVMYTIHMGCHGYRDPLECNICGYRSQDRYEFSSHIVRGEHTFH
T3 sequence (Q96SW2 whole entry, further chain): as the sequence (Q96SW2 whole entry partner) above
T3 sequence (Q16531 whole entry partner): as the sequence (Q16531 whole entry partner) above
T4 sequence (Q9UKS7 whole entry): as the sequence (Q9UKS7 whole entry) above
T4 sequence (Q96SW2 whole entry): as the sequence (Q96SW2 whole entry partner) above
T4 sequence (Q16531 whole entry partner): as the sequence (Q16531 whole entry partner) above

| DC50 [1] [nM] | EC50 [2] [nM] | DC50 [3] [nM] | inhibition at 1 µM [4] [%] | DC50 [5] [nM] | SMILES |
| --- | --- | --- | --- | --- | --- |
| > 30000 | 44 | 71 | 74.3 | > 30000 | Cc1nccc(C2CN(C3CCCCC3Oc3ccc4c(c3)CN(C3CCC(=O)NC3=O)C4=O)C2)n1 (stereo not shown) [Compound 190-B, 3-(5-((2-(3-(2-methylpyrimidin-4-yl)azetidin-1-yl)cyclohexyl)oxy)-1-oxoisoindolin-2-yl)piperidine-2,6-dione] |
| > 30000 | 37 | 22 | 75.4 | > 30000 | O=C1CCC(N2Cc3cc(O[C@H]4CCCC[C@@H]4N4CC(c5ccc6[nH]ncc6c5)C4)ccc3C2=O)C(=O)N1 (stereo partly drawn) [Compound 204-B, 3-(5-(((1S,2S)-2-(3-(1H-indazol-5-yl)azetidin-1-yl)cyclohexyl)oxy)-1-oxoisoindolin-2-yl)piperidine-2,6-dione] |
| > 30000 | 59 | 22 | 70.4 | > 30000 | O=C1CCC(N2Cc3cc(O[C@@H]4CCCC[C@@H]4N4CC(c5ccncc5Cl)C4)ccc3C2=O)C(=O)N1 (mixture of isomers) [Compound 162-B, Rac-3-(5-(((cis)-2-(3-(3-chloropyridin-4-yl)azetidin-1-yl)cyclohexyl)oxy)-1-oxoisoindolin-2-yl)piperidine-2,6-dione] |
| > 30000 | 28 | 64 | 79.3 | > 30000 | O=C1CCC(N2Cc3cc(OC4CCCCC4N4CC(c5cccc6[nH]ncc56)C4)ccc3C2=O)C(=O)N1 (stereo not shown) [Compound 211-B, 3-(5-((2-(3-(2H-indazol-4-yl)azetidin-1-yl)cyclohexyl)oxy)-1-oxoisoindolin-2-yl)piperidine-2,6-dione] |
| > 30000 | 2 | 4 | 70.3 | > 30000 | O=C1CCC(N2Cc3cc(OC4CCCCC4N4CC(c5ncc(C6CC6)cn5)C4)ccc3C2=O)C(=O)N1 (stereo not shown) [Compound 177-B, 3-(5-((2-(3-(5-cyclopropylpyrimidin-2-yl)azetidin-1-yl)cyclohexyl)oxy)-1-oxoisoindolin-2-yl)piperidine-2,6-dione] |
| > 30000 | 39 | 46 | 68.6 | > 30000 | N#Cc1cc(C2CN([C@@H]3CCCC[C@@H]3Oc3ccc4c(c3)CN(C3CCC(=O)NC3=O)C4=O)C2)ccn1 (mixture of isomers) [Compound 179-B, Rac-4-(1-((cis)-2-((2-(2,6-dioxopiperidin-3-yl)-1-oxoisoindolin-5-yl)oxy)cyclohexyl)azetidin-3-yl)picolinonitrile] |
| > 30000 | 74 | 241 | 28.8 | > 30000 | O=C1CCC(N2Cc3cc(O[C@H]4CCCC[C@@H]4N4CC(c5ccncc5F)C4)ccc3C2=O)C(=O)N1 (mixture of isomers) [Compound 167-B, Rac-3-(5-(((trans)-2-(3-(3-fluoropyridin-4-yl)azetidin-1-yl)cyclohexyl)oxy)-1-oxoisoindolin-2-yl)piperidine-2,6-dione] |
| > 30000 | 30 | 21 | 80.3 | > 30000 | Cc1ccnc(C2CN([C@H]3CCCC[C@H]3Oc3ccc4c(c3)CN(C3CCC(=O)NC3=O)C4=O)C2)n1 (mixture of isomers) [Compound 185-B, Rac-3-(5-(((cis)-2-(3-(4-methylpyrimidin-2-yl)azetidin-1-yl)cyclohexyl)oxy)-1-oxoisoindolin-2-yl)piperidine-2,6-dione] |
| > 30000 | 7 | 123 | 25.6 | > 30000 | O=C1CCC(N2Cc3cc(O[C@H]4CCCC[C@@H]4N4CC(c5ccc(C(F)(F)F)cn5)C4)ccc3C2=O)C(=O)N1 (mixture of isomers) [Compound 192-B, Rac-3-(1-oxo-5-(((trans)-2-(3-(5-(trifluoromethyl)pyridin-2-yl)azetidin-1-yl)cyclohexyl)oxy)isoindolin-2-yl)piperidine-2,6-dione] |
| > 30000 | 11 | 11 | 71.5 | > 30000 | O=C1CCC(N2Cc3cc(O[C@@H]4CCCC[C@H]4N4CC(c5ccc(Cl)cn5)C4)ccc3C2=O)C(=O)N1 (mixture of isomers) [Compound 163-B, Rac-3-(5-(((trans)-2-(3-(5-chloropyridin-2-yl)azetidin-1-yl)cyclohexyl)oxy)-1-oxoisoindolin-2-yl)piperidine-2,6-dione] |
| > 30000 | 109 | 66 | 54.6 | > 30000 | COc1cc(C2CN(C3CCCC3Oc3ccc4c(c3)CN(C3CCC(=O)NC3=O)C4=O)C2)ccn1 (stereo not shown) [Compound 170-B, 3-(5-((2-(3-(2-methoxypyridin-4-yl)azetidin-1-yl)cyclopentyl)oxy)-1-oxoisoindolin-2-yl)piperidine-2,6-dione] |
| > 30000 | 15 | 10 | 81.3 | > 30000 | O=C1CCC(N2Cc3cc(O[C@@H]4CCCC[C@@H]4N4CC(c5ccc(C(F)(F)F)nc5)C4)ccc3C2=O)C(=O)N1 (mixture of isomers) [Compound 183-B, Rac-3-(1-oxo-5-(((cis)-2-(3-(6-(trifluoromethyl)pyridin-3-yl)azetidin-1-yl)cyclohexyl)oxy)isoindolin-2-yl)piperidine-2,6-dione] |
| > 30000 | 58 | 230 | 38.9 | > 30000 | O=C1CCC(N2Cc3cc(OC4CCC[C@@H]4N4CC(c5ccccn5)C4)ccc3C2=O)C(=O)N1 (mixture of isomers) [Compound 209-B, Rac-3-(1-oxo-5-(((cis)-2-(3-(pyridin-2-yl)azetidin-1-yl)cyclopentyl)oxy)isoindolin-2-yl)piperidine-2,6-dione] |
| > 30000 | 214 | 601 | 17.6 | > 30000 | O=C1CCC(N2Cc3cc(OC4CCC[C@@H]4N4CC(c5cncnc5)C4)ccc3C2=O)C(=O)N1 (mixture of isomers) [Compound 196-B, Rac-3-(1-oxo-5-(((cis)-2-(3-(pyrimidin-5-yl)azetidin-1-yl)cyclopentyl)oxy)isoindolin-2-yl)piperidine-2,6-dione] |
| > 30000 | 13 | 123 | 21.2 | > 30000 | Cc1cnc(C2CN([C@H]3CCCC[C@@H]3Oc3ccc4c(c3)CN(C3CCC(=O)NC3=O)C4=O)C2)nc1 (mixture of isomers) [Compound 189-B, Rac-3-(5-(((trans)-2-(3-(5-methylpyrimidin-2-yl)azetidin-1-yl)cyclohexyl)oxy)-1-oxoisoindolin-2-yl)piperidine-2,6-dione] |
| > 30000 | 3 | 5 | 64.5 | > 30000 | O=C1CCC(N2Cc3cc(O[C@H]4CCCC[C@@H]4N4CC(c5ccc6c(c5)OCCO6)C4)ccc3C2=O)C(=O)N1 (stereo partly drawn) [Compound 58-A, 3-(5-(((1S,2S)-2-(3-(2,3-dihydrobenzo[b][1,4]dioxin-6-yl)azetidin-1-yl)cyclohexyl)oxy)-1-oxoisoindolin-2-yl)piperidine-2,6-dione] |
| > 30000 | 17 | 21 | 79.6 | > 30000 | Cc1cnc(C2CN([C@H]3CCCC[C@H]3Oc3ccc4c(c3)CN(C3CCC(=O)NC3=O)C4=O)C2)nc1 (mixture of isomers) [Compound 184-B, Rac-3-(5-(((cis)-2-(3-(5-methylpyrimidin-2-yl)azetidin-1-yl)cyclohexyl)oxy)-1-oxoisoindolin-2-yl)piperidine-2,6-dione] |
| > 30000 | 10 | 11 | 72.3 | > 30000 | Cc1cnccc1C1CN(C2CCCCC2Oc2ccc3c(c2)CN(C2CCC(=O)NC2=O)C3=O)C1 (stereo not shown) [Compound 198-B, 3-(5-((2-(3-(3-methylpyridin-4-yl)azetidin-1-yl)cyclohexyl)oxy)-1-oxoisoindolin-2-yl)piperidine-2,6-dione] |
| > 30000 | 6 | 5 | 79.7 | > 30000 | O=C1CCC(N2Cc3cc(O[C@@H]4CCCC[C@@H]4N4CC(c5ncc(C(F)(F)F)cn5)C4)ccc3C2=O)C(=O)N1 (mixture of isomers) [Compound 186-B, Rac-3-(1-oxo-5-(((cis)-2-(3-(5-(trifluoromethyl)pyrimidin-2-yl)azetidin-1-yl)cyclohexyl)oxy)isoindolin-2-yl)piperidine-2,6-dione] |
| > 30000 | 6 | 6 | 81.9 | > 30000 | O=C1CCC(N2Cc3cc(OC4CCCCC4N4CC(c5ccc6cccnc6c5)C4)ccc3C2=O)C(=O)N1 (stereo not shown) [Compound 193-B, 3-(1-oxo-5-((2-(3-(quinolin-7-yl)azetidin-1-yl)cyclohexyl)oxy)isoindolin-2-yl)piperidine-2,6-dione] |

From patent US20250100996A1, “HETEROCYCLOALKYL AND HETEROARYL COMPOUNDS AND PHARMACEUTICAL COMPOSITIONS THAT MODULATE IKZF2” (Plexium, Inc., priority 2021, published 2025)
